Results: patent US11970498B2, “CDK2 inhibitors” (BLUEPRINT MEDICINES CORPORATION, priority 2021, dated 2024)
Read-outs that look alike come from different tables or passages of the source.

Legend:
[1] = target: CDK2/Cyclin E (Homo sapiens, UniProt P24941); assay: CDK2/Cyclin E biochemical phosphorylation assay (Caliper mobility shift)
Description: (§1) Inhibitory effects of the compounds of the disclosure were measured in biochemical assays that measure the enzymatic phosphorylation activity of CDK enzyme in complex of Cyclin proteins phosphorylates 7.5 micromolar fluorescently labelled peptide substrate, 5-FAM-QSPKKG-CONH2, (FL-Peptide 18, Perkin Elmer, 760362) in the presence of adenosine-5′-triphosphate (ATP) and varying concentrations of the test compound in 100 mM 2-[4-(2-hydroxyethyl)piperazin-1-yl] ethanesulfonic acid (HEPES), pH 7.5, 10 mM MgCl2, 0.015% Brij-35, 1 mM dithiothreitol (DTT), 1.0% dimethylsulfoxide (DMSO). Assays were performed at 1.0 mM ATP or at ATP Km of the CDK enzymes in complex with Cyclin proteins. Reactions proceeded until between 10% to 20% total peptides were phosphorylated at room temperature (25° C.) and were terminated with 35 mM 2,2′,2″,2′″-(ethane-1,2-diyldinitrilo)tetraacetic acid (EDTA). Product was detected using the Caliper mobility shift detection method where the phosphorylated peptide (product) and substrate were electrophoretically separated and measured. Percent activity was plotted against log concentration of compound and points to generate an apparent IC50. The following CDK enzymes in complex with different cyclin proteins were used in these assays: • CDK1/Cyclin B1, GST-tag (BPS, 40454), 1.5 nM used in the assay • CDK2/Cyclin E (Eurofins, 14-475), 1.25 nM used in the assays
(§2) For inhibitory activity against CDK2/Cyclin E mutant, the following designations are used: ≤10 nM=A; >10-20 nM=B; >20-30 nM=C; >30-100 nM=D and >100=E. For inhibition CDK1/Cyclin B1, GST-tag: ≥500 nM=A; <100-500 nM=B; <100 nM=C.

[2] = target: T1, CDK1/Cyclin B1, GST-tag (Homo sapiens, UniProt P06493); assay: CDK1/Cyclin B1 biochemical phosphorylation assay (Caliper mobility shift); details: apparent IC50; 1.0 mM ATP or ATP Km; 1.5 nM enzyme; 25° C.
T1 construct: GST
Description: as §1, §2

[3] = apparent IC50, 1.0 mM ATP or ATP Km, 1.25 nM enzyme, 25° C., read-out: CDK2/cyclin E1 IC50

T1 sequence (P06493 whole entry): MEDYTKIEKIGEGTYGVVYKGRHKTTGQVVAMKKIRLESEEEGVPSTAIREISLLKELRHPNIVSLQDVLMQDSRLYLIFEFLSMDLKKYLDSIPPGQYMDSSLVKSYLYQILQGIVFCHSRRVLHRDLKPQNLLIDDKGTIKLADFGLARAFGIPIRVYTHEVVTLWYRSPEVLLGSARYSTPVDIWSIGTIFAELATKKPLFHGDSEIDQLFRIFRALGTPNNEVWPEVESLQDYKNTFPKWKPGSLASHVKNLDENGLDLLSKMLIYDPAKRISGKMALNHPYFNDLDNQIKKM
T1 sequence (P14635 whole entry partner): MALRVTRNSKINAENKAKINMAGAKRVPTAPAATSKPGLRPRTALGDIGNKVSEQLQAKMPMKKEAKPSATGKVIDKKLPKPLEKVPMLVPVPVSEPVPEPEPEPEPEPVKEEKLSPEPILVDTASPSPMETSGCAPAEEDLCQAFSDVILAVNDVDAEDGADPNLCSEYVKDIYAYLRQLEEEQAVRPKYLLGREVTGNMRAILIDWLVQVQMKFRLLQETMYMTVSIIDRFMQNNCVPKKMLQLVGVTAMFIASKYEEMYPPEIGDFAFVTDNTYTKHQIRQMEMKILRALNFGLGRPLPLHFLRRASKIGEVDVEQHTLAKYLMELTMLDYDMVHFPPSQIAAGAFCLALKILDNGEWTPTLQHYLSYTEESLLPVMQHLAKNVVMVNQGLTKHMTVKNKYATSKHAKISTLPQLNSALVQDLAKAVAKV

Structure (SMILES) | IC50 [1, 3] [µM] | IC50 [2] [µM] | IC50 ([1]; additional compounds not disclosed herein, assays of Biological Example 1, read-out: inhibitory activity for CDK2/cyclin E1) [µM]
O[C@H]1CC[C@@H](Cn2ncc3ncc(Nc4cc(OC(F)F)[nH]n4)nc32)CC1 (single isomer, unassigned) [Example 172, (1r,4r)-4-((6-((5-(difluoromethoxy)-1H-pyrazol-3-yl)amino)-1H-pyrazolo[3,4-b]pyrazin-1-yl)methyl)cyclohexan-1-ol or (1s,4s)-4-((6-((5-(difluoromethoxy)-1H-pyrazol-3-yl)amino)-1H-pyrazolo[3,4-b]pyrazin-1-yl)methyl)cyclohexan-1-ol] | 0.01 to 0.02 | ≥ 0.5 | –
C[C@H](c1ccccn1)n1ncc2ncc(Nc3cc(OC(F)F)[nH]n3)nc21 [Example 82, (R)-N-(5-(difluoromethoxy)-1H-pyrazol-3-yl)-1-(1-(pyridin-2-yl)ethyl)-1H-pyrazolo[3,4-b]pyrazin-6-amine] | 0.02 to 0.03 | ≥ 0.5 | –
FC(F)Oc1cc(Nc2cnc3cnn(Cc4cccc5[nH]ncc45)c3n2)n[nH]1 [Example 128, 1-((1H-indazol-4-yl)methyl)-N-(5-(difluoromethoxy)-1H-pyrazol-3-yl)-1H-pyrazolo[3,4-b]pyrazin-6-amine] | 0.03 to 0.1 | ≥ 0.5 | –
C[C@@H](O)c1nn([C@@H](C)c2cccnc2)c2nc(Nc3cc(OC(F)F)[nH]n3)cnc12 (single isomer, unassigned) [Example 177, (R)-1-(6-((5-(difluoromethoxy)-1H-pyrazol-3-yl)amino)-1-((S)-1-(pyridin-3-yl)ethyl)-1H-pyrazolo[3,4-b]pyrazin-3-yl)ethan-1-ol or (S)-1-(6-((5-(difluoromethoxy)-1H-pyrazol-3-yl)amino)-1-((S)-1-(pyridin-3-yl)ethyl)-1H-pyrazolo[3,4-b]pyrazin-3-yl)ethan-1-ol] | ≤ 0.01 | ≥ 0.5 | –
CC(c1cccn(C)c1=O)n1ncc2ncc(Nc3cc(OC(F)F)[nH]n3)nc21 (stereo not drawn) | – | – | > 10
Cc1ncccc1Cn1ncc2ncc(Nc3cc(OC(F)F)[nH]n3)nc21 [Example 95, N-(5-(difluoromethoxy)-1H-pyrazol-3-yl)-1-((2-methylpyridin-3-yl)methyl)-1H-pyrazolo[3,4-b]pyrazin-6-amine] | 0.02 to 0.03 | ≥ 0.5 | –
FC(F)Oc1cc(Nc2cnc3cnn(C[C@H]4CCCOC4)c3n2)n[nH]1 (single isomer, unassigned) [Example 142, (S)-N-(5-(difluoromethoxy)-1H-pyrazol-3-yl)-1-((tetrahydro-2H-pyran-3-yl)methyl)-1H-pyrazolo[3,4-b]pyrazin-6-amine or (R)-N-(5-(difluoromethoxy)-1H-pyrazol-3-yl)-1-((tetrahydro-2H-pyran-3-yl)methyl)-1H-pyrazolo[3,4-b]pyrazin-6-amine] | ≤ 0.01 | 0.1 to 0.5 | –
CC1(Cn2ncc3ncc(Nc4cc(OC(F)F)[nH]n4)nc32)CCOCC1 [Example 110, N-(5-(difluoromethoxy)-1H-pyrazol-3-yl)-1-((4-methyltetrahydro-2H-pyran-4-yl)methyl)-1H-pyrazolo[3,4-b]pyrazin-6-amine] | ≤ 0.01 | 0.1 to 0.5 | –
O[C@H]1CC[C@@H](Cn2ncc3ncc(Nc4cc(OC(F)F)[nH]n4)nc32)CC1 (single isomer, unassigned) [Example 171, (1s,4s)-4-((6-((5-(difluoromethoxy)-1H-pyrazol-3-yl)amino)-1H-pyrazolo[3,4-b]pyrazin-1-yl)methyl)cyclohexan-1-ol or (1r,4r)-4-((6-((5-(difluoromethoxy)-1H-pyrazol-3-yl)amino)-1H-pyrazolo[3,4-b]pyrazin-1-yl)methyl)cyclohexan-1-ol] | 0.01 to 0.02 | ≥ 0.5 | –
C[C@@H]([C@@H]1COCCO1)n1ncc2ncc(Nc3cc(OC(F)F)[nH]n3)nc21 (single isomer, unassigned) [Example 214] | 0.01 to 0.02 | ≥ 0.5 | –
FC(F)Oc1cc(Nc2cnc3cnn(Cc4cnccn4)c3n2)n[nH]1 [Example 223, N-(5-(difluoromethoxy)-1H-pyrazol-3-yl)-1-(pyrazin-2-ylmethyl)-1H-pyrazolo[3,4-b]pyrazin-6-amine] | 0.02 to 0.03 | ≥ 0.5 | –
